System: NOMO1
Assay: cell viability relative to DMSO control; higher = less cytotoxic
Conditions: 48 h
Outline: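 Library compounds in DMSO were pin-dosed in an 11-point threefold series (47 μM to 0.79 nM) onto leukemia cells in 1536-well plates (5 μl). Plates held 500 cells/well of NOMO1 or SEM or 1000 cells/well of P12-Ichikawa, each adapted for at least four passages in each medium. Luminescence was read with CellTiter-Glo One after 48 h at 37°C. Viability means the per-plate percentage relative to DMSO wells, using cell-free wells as background.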

[1] = HPLM + 10% dialyzed FBS, 0.000781 µM
[2] = HPLM + 10% dialyzed FBS, 0.00234 µM
[3] = HPLM + 10% dialyzed FBS, 0.00702 µM
[4] = HPLM + 10% dialyzed FBS, 0.0211 µM
[5] = HPLM + 10% dialyzed FBS, 0.0632 µM
[6] = HPLM + 10% dialyzed FBS, 0.19 µM
[7] = HPLM + 10% dialyzed FBS, 0.569 µM
[8] = HPLM + 10% dialyzed FBS, 1.71 µM
[9] = HPLM + 10% dialyzed FBS, 5.12 µM
[10] = HPLM + 10% dialyzed FBS, 15.4 µM
[11] = HPLM + 10% dialyzed FBS, 46.1 µM
[12] = RPMI 5 mM glucose + 10% FBS, 0.000781 µM
[13] = RPMI 5 mM glucose + 10% FBS, 0.00234 µM
[14] = RPMI 5 mM glucose + 10% FBS, 0.00702 µM
[15] = RPMI 5 mM glucose + 10% FBS, 0.0211 µM
[16] = RPMI 5 mM glucose + 10% FBS, 0.0632 µM
[17] = RPMI 5 mM glucose + 10% FBS, 0.19 µM
[18] = RPMI 5 mM glucose + 10% FBS, 0.569 µM
[19] = RPMI 5 mM glucose + 10% FBS, 1.71 µM
[20] = RPMI 5 mM glucose + 10% FBS, 5.12 µM
[21] = RPMI 5 mM glucose + 10% FBS, 15.4 µM
[22] = RPMI 5 mM glucose + 10% FBS, 46.1 µM
[23] = RPMI 5 mM glucose + 10% dialyzed FBS, 0.000781 µM
[24] = RPMI 5 mM glucose + 10% dialyzed FBS, 0.00234 µM
[25] = RPMI 5 mM glucose + 10% dialyzed FBS, 0.00702 µM
[26] = RPMI 5 mM glucose + 10% dialyzed FBS, 0.0211 µM
[27] = RPMI 5 mM glucose + 10% dialyzed FBS, 0.0632 µM
[28] = RPMI 5 mM glucose + 10% dialyzed FBS, 0.19 µM
[29] = RPMI 5 mM glucose + 10% dialyzed FBS, 0.569 µM
[30] = RPMI 5 mM glucose + 10% dialyzed FBS, 1.71 µM
[31] = RPMI 5 mM glucose + 10% dialyzed FBS, 5.12 µM
[32] = RPMI 5 mM glucose + 10% dialyzed FBS, 15.4 µM
[33] = RPMI 5 mM glucose + 10% dialyzed FBS, 46.1 µM

| SMILES | cell viability [1] | cell viability [2] | cell viability [3] | cell viability [4] | cell viability [5] | cell viability [6] | cell viability [7] | cell viability [8] | cell viability [9] | cell viability [10] | cell viability [11] | cell viability [12] | cell viability [13] | cell viability [14] | cell viability [15] | cell viability [16] | cell viability [17] | cell viability [18] | cell viability [19] | cell viability [20] | cell viability [21] | cell viability [22] | cell viability [23] | cell viability [24] | cell viability [25] | cell viability [26] | cell viability [27] | cell viability [28] | cell viability [29] | cell viability [30] | cell viability [31] | cell viability [32] | cell viability [33] |
| --- | --- | --- | --- | --- | --- | --- | --- | --- | --- | --- | --- | --- | --- | --- | --- | --- | --- | --- | --- | --- | --- | --- | --- | --- | --- | --- | --- | --- | --- | --- | --- | --- | --- |
| Cc1ccccc1N1C(=O)c2cc([S+](N)(=O)[O-])c(Cl)cc2NC1C (centres undefined) | 123% | 109% | 121% | 117% | 106% | 120% | 110% | 113% | 37.9% | 82.7% | 123% | 131% | 113% | 124% | 116% | 114% | 118% | 120% | 122% | 28.1% | 94.5% | 107% | 114% | 128% | 124% | 130% | 128% | 119% | 116% | 119% | 35.6% | 77.8% | 109% |
| CCc1cc(Nc2nccc(-c3c(-c4ccc(OC)c(C(=O)Nc5c(F)cccc5F)c4)nc4ccccn34)n2)c(OC)cc1N1CCC(N2CCN([S+](C)(=O)[O-])CC2)CC1 | 101% | 95.2% | 103% | 104% | 105% | 96.7% | 114% | 120% | 103% | 96% | 43.2% | 101% | 91.5% | 92.7% | 95.3% | 94.6% | 102% | 114% | 106% | 101% | 111% | 44.6% | 84.8% | 90.1% | 94.8% | 101% | 104% | 86% | 102% | 107% | 109% | 98.3% | 65.5% |
| Oc1ccc2c3c1O[C@H]1c4[nH]c5c(c4C[C@@]4(O)[C@@H](C2)N(CC2CC2)CC[C@]314)C[C@@]1(O)[C@H]2Cc3ccc(O)c4c3[C@@]1(CCN2CC1CC1)[C@H]5O4 | 92.7% | 104% | 114% | 116% | 116% | 136% | 108% | 115% | 129% | 132% | 131% | 99.8% | 122% | 110% | 116% | 128% | 118% | 125% | 120% | 116% | 123% | 134% | 98% | 127% | 112% | 122% | 123% | 126% | 122% | 110% | 108% | 124% | 119% |
| Nc1ccccc1NC(=O)c1ccc(CNC(=O)OCc2cccnc2)cc1 | 103% | 127% | 111% | 108% | 118% | 110% | 81.1% | 47% | 22.9% | 12.7% | 3.22% | 103% | 92.5% | 103% | 99% | 108% | 103% | 88.7% | 58.6% | 33.9% | 10.7% | 3.59% | 115% | 107% | 110% | 115% | 123% | 97.3% | 94.2% | 53.9% | 24.7% | 9.54% | 2.99% |
| COc1cnc(N[S+](=O)([O-])c2ccc(N)cc2)nc1 | 111% | 114% | 106% | 125% | 125% | 119% | 114% | 130% | 114% | 84.5% | 31.1% | 122% | 118% | 114% | 112% | 124% | 131% | 138% | 128% | 125% | 110% | 48.2% | 110% | 118% | 123% | 125% | 121% | 127% | 114% | 125% | 98.5% | 97.5% | 63.5% |
| CC[C@H](CC[C@@H](C)[C@H]1CC[C@H]2[C@@H]3C\C=C/4C[C@@H](O)CC[C@]4(C)[C@H]3CC[C@]12C)C(C)C | 97.3% | 126% | 123% | 117% | 131% | 124% | 114% | 107% | 95.6% | 55.5% | 35.6% | 103% | 114% | 113% | 106% | 108% | 115% | 102% | 103% | 96.1% | 92.4% | 22.3% | 105% | 120% | 114% | 107% | 116% | 107% | 97.3% | 102% | 93.5% | 72.5% | 26.3% |
| COc1cccc2cc(-c3nc(C4CCC(C(=O)O)CC4)n4ncnc(N)c34)[nH]c12 (centres undefined) | 116% | 124% | 102% | 119% | 99.8% | 94.7% | 68.2% | 38.7% | 34.8% | 37.3% | 47.1% | 109% | 113% | 107% | 106% | 105% | 105% | 98.4% | 55.3% | 30% | 26.3% | 19.9% | 105% | 104% | 108% | 115% | 102% | 105% | 88.1% | 53.6% | 41.7% | 26.9% | 27.8% |
| CNC(=O)c1ccc(-c2cnc3ncc(Cc4ccc5ncccc5c4)n3n2)cc1F | 113% | 127% | 120% | 103% | 132% | 116% | 131% | 133% | 125% | 117% | 135% |  |  |  |  |  |  |  |  |  |  |  | 116% | 124% | 138% | 131% | 126% | 136% | 129% | 136% | 130% | 137% | 145% |
| OC1=C(O)C2=C(\C=C/C(=O)O2)C=C1 | 102% | 111% | 109% | 116% | 113% | 108% | 103% | 109% | 111% | 115% | 128% | 99.7% | 105% | 105% | 116% | 106% | 96.5% | 97.3% | 110% | 97.1% | 107% | 99.4% | 105% | 102% | 108% | 107% | 99.8% | 127% | 111% | 101% | 107% | 110% | 112% |
| OC[C@H]1O[C@@H](O[C@@H]2[C@@H](CO)O[C@](O)(CO)[C@H]2O)[C@H](O)[C@@H](O)[C@H]1O | 108% | 110% | 110% | 113% | 99.5% | 92.2% | 103% | 95.1% | 102% | 47.7% | 78.1% | 91.1% | 95.4% | 111% | 109% | 105% | 100% | 105% | 97.3% | 88.1% | 71.9% | 86.2% | 91.4% | 86.6% | 103% | 97.5% | 95.7% | 101% | 100% | 98.7% | 92.5% | 68.1% | 80.6% |
| O=NN(CCCl)C(=O)NC1CCCCC1 | 91.4% | 114% | 110% | 94.8% | 105% | 107% | 113% | 110% | 111% | 97.4% | 109% | 99.2% | 95.4% | 113% | 95.2% | 102% | 108% | 115% | 56.6% | 100% | 110% | 102% | 102% | 102% | 93.5% | 105% | 111% | 97.7% | 113% | 93.6% | 99.2% | 109% | 99.7% |
| COc1ccc(C[C@@H](C)[C@@H](C)Cc2ccc(OC)c(OC)c2)cc1OC | 92.1% | 94.8% | 107% | 112% | 93.5% | 75.5% | 68% | 53.7% | 16.6% | 17.8% | 13.8% | 87.3% | 93.7% | 88.6% | 100% | 86.3% | 85.1% | 74.9% | 71.6% | 8.17% | 6.56% | 5.76% | 84% | 80.2% | 97.4% | 97.6% | 95.3% | 89.6% | 82.4% | 69.2% | 21.4% | 11.1% | 7.7% |
| C/C=C(/C)C(=O)O[C@H]1C(C)=C2[C@H]([C@@H]1OC(=O)CCCCCCC)[C@@](C)(OC(C)=O)C[C@H](OC(=O)CCC)[C@@]1(O)[C@H]2OC(=O)[C@@]1(C)O | 100% | 110% | 99.4% | 127% | 56.6% | 12.5% | 7.29% | 4.31% | 2.9% | 2.91% | 5% | 112% | 112% | 130% | 119% | 92.7% | 17% | 9.53% | 10.4% | 6.41% | 3.83% | 5.08% | 117% | 121% | 129% | 123% | 68% | 13.4% | 8.71% | 10.1% | 7.55% | 5.66% | 5.67% |
| Cc1c(CN2CCN(C(=O)[C@H](C)O)CC2)sc2c(N3CCOCC3)nc(-c3cnc(N)nc3)nc12 | 77.8% | 100% | 89.8% | 90.4% | 86.5% | 71.5% | 53.9% | 46.9% | 33.7% | 39.4% | 40.5% | 79.2% | 93.6% | 93.9% | 88.6% | 91.5% | 86.9% | 69.1% | 58.2% | 52.5% | 47.9% | 43.9% | 79.7% | 94% | 81.2% | 74.5% | 69.5% | 73.7% | 59.1% | 45.4% | 47.8% | 44.6% | 39.3% |
| O=C([O-])C(O)Cc1ccc(O)c(O)c1 (centres undefined) | 100% | 91% | 108% | 95.5% | 116% | 106% | 99.4% | 100% | 90.8% | 74.9% | 60.1% | 91.8% | 83.7% | 87.1% | 96.5% | 91.2% | 91.8% | 84% | 92.5% | 87.4% | 77.9% | 64.3% | 96.7% | 102% | 104% | 100% | 96.4% | 91.4% | 100% | 84.4% | 81.4% | 78.5% | 65.4% |

Reference: the supplement of paper PMC11451515
